In ChEMBL document CHEMBL3108676, “Discovery of a Novel Class of Imidazo[1,2-a]Pyridines with Potent PDGFR Activity and Oral Bioavailability” (ACS Med Chem Lett, 2014):
≈ marks a conversion by molar mass, not a printed value. Values belong to the molecule of their own block, whether it stands above or below them. Calls of active or inactive are those of the source. The rule behind the calls is not given here.

Key:
[1] = biological target: T1, Platelet-derived growth factor receptor beta (Mus musculus, UniProt P05622); assay: Inhibition of PDGF-induced PDGFRbeta phosphorylation in mouse NIH3T3 cells incubated for 1 hr prior to PDGF induction measured after 15 mins by fluorescence assay; assay type: cell-based
[2] = (§1) Cmax in rat at 10 mg/kg, po; assay type: ADME, organism-based; design: dose 10 mg/kg, route oral; conditions: in vivo
MDR1 = assay: Apparent permeability across apical to basolateral side in pig LLC-PK1 cells expressing MDR1 assessed as compound recovery; assay type: ADME, cell-based, Sus scrofa; conditions: read-out: Papp
[3] = Dissociation constant, pKa of the compound; assay type: physicochemical
Cytochrome P450 2C19 = Cytochrome P450 2C19 (Homo sapiens, UniProt P33261); assay: Inhibition of CYP2C19 (unknown origin); assay type: ADME
[4] = (§2) AUC in rat at 10 mg/kg, po; assay type: ADME, organism-based, Plasma; design: dose 10 mg/kg, route oral; conditions: plasma
Cytochrome P450 3A4 = Cytochrome P450 3A4 (Homo sapiens, UniProt P08684); assay: Inhibition of CYP3A4 (unknown origin); assay type: ADME
[5] = biological target: Mast/stem cell growth factor receptor Kit (Homo sapiens, UniProt P10721); assay: Inhibition of cKIT (unknown origin)
Cytochrome P450 2C9 = Cytochrome P450 2C9 (Homo sapiens, UniProt P11712); assay: Inhibition of CYP2C9 (unknown origin); assay type: ADME
Cytochrome P450 2D6 = Cytochrome P450 2D6 (Homo sapiens, UniProt P10635); assay: Inhibition of CYP2D6 (unknown origin); assay type: ADME
Cytochrome P450 1A2 = biological target: T2, Cytochrome P450 1A2 (Homo sapiens, UniProt P05177); assay: Inhibition of CYP1A2 (unknown origin); assay type: ADME
T2 sequence (P05177 whole entry): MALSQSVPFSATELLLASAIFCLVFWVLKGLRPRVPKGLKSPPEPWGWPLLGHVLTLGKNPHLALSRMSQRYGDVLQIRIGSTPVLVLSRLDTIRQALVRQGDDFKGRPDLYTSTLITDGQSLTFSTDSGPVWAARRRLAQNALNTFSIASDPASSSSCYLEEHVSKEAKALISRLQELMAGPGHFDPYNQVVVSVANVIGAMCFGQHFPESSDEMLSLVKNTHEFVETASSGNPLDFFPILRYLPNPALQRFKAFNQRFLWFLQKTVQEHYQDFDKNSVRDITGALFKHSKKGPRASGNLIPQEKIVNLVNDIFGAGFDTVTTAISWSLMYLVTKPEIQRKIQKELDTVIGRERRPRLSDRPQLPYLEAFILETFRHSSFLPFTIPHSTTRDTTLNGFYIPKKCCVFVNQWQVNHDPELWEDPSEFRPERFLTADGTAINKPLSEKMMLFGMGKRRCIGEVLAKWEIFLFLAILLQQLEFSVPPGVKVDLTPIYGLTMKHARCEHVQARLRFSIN

[6] = Clearance in rat at 1 mg/kg, iv; assay type: ADME, organism-based; design: dose 1 mg/kg, route intravenous; conditions: in vivo
[7] = (§3) Oral bioavailability in rat at 10 mg/kg; assay type: ADME, organism-based; conditions: in vivo
[8] = biological target: T1, Platelet-derived growth factor receptor beta; assay: Inhibition of PDGF-induced PDGFRbeta phosphorylation in mouse NIH3T3 cells incubated for 1 hr prior to PDGF induction measured after 15 mins by fluorescence assay in presence of 50% human plasma; assay type: cell-based
[9] = (§4) Apparent permeability across apical to basolateral side in pig LLC-PK1 cells; assay type: ADME, cell-based, Sus scrofa; conditions: LLC-PK1
[10] = biological target: Macrophage colony-stimulating factor 1 receptor (Homo sapiens, UniProt P07333)
Description: Inhibition of cFMS (unknown origin)

[11] = Oral bioavailability in cynomolgus monkey at 30 mg/kg; assay type: ADME, organism-based, Macaca fascicularis; conditions: in vivo
Mus musculus [12] = assay: In vivo inhibition of PDGFR phosphorylation in tumor of nu/nu nude mouse xenografted with rat C6 cells administered as po qd after 2 to 6 hrs; assay type: functional, organism-based
[13] = Cmax in cynomolgus monkey at 30 mg/kg, po; assay type: ADME, organism-based, Macaca fascicularis; design: dose 30 mg/kg, route oral; conditions: in vivo
[14] = biological target: Voltage-gated inwardly rectifying potassium channel KCNH2 (Homo sapiens, UniProt Q12809); assay: Inhibition of human ERG
Rattus norvegicus [15] = assay: Toxicity in rat up to 50 mg/kg, po bid administered for 2 weeks; assay type: organism-based; design: dose 50 mg/kg, route oral; conditions: in vivo, 336 h
[16] = AUC in cynomolgus monkey at 30 mg/kg, po; assay type: ADME, organism-based, Macaca fascicularis; design: dose 30 mg/kg, route oral; conditions: plasma
LLC-PK1 = assay: as §4; assay type: ADME, cell-based, Sus scrofa; conditions: llc-pk1
Rattus norvegicus [17] = assay: as §1; assay type: ADME, organism-based; design: dose 10 mg/kg, route oral; conditions: in vivo
Rattus norvegicus [18] = assay: as §2; assay type: ADME, organism-based, Plasma; design: dose 10 mg/kg, route oral; conditions: in vivo
Rattus norvegicus [19] = assay: as §3; assay type: ADME, organism-based; conditions: in vivo
[20] = Solubility of the compound; assay type: physicochemical
Mus musculus [21] = assay: In vivo inhibition of PDGFR phosphorylation in tumor of nu/nu nude mouse xenografted with rat C6 cells at 10 to 100 mg/kg, po qd after 12 hrs; assay type: functional, organism-based

Chain of Cytochrome P450 2C19 (P33261 whole entry): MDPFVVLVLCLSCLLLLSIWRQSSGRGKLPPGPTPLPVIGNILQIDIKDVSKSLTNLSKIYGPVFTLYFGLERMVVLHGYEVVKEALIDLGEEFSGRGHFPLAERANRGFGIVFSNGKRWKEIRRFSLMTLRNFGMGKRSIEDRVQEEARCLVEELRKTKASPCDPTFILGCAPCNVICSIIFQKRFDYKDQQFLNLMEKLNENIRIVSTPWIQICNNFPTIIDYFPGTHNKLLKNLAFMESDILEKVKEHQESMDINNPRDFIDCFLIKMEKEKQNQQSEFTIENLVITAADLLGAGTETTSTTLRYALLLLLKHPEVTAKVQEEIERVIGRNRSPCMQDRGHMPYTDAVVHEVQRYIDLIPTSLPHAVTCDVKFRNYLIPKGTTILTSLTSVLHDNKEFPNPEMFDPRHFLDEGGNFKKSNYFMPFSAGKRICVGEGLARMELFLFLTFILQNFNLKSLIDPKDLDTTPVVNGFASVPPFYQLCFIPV
Chain of Cytochrome P450 3A4 (P08684 whole entry): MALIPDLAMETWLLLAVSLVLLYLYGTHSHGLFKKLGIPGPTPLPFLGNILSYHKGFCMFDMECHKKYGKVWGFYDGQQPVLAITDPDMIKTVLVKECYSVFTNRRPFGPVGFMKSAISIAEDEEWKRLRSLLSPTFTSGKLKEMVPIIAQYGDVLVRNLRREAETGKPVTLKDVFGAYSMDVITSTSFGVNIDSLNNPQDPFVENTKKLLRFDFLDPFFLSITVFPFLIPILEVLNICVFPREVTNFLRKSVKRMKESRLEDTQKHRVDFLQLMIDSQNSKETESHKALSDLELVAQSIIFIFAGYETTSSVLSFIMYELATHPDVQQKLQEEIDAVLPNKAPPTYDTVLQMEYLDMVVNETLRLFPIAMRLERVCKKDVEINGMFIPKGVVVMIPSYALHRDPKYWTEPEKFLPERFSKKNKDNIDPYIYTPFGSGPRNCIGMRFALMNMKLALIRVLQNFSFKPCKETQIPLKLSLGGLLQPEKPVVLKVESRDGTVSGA
Chain of Cytochrome P450 2D6 (P10635 whole entry): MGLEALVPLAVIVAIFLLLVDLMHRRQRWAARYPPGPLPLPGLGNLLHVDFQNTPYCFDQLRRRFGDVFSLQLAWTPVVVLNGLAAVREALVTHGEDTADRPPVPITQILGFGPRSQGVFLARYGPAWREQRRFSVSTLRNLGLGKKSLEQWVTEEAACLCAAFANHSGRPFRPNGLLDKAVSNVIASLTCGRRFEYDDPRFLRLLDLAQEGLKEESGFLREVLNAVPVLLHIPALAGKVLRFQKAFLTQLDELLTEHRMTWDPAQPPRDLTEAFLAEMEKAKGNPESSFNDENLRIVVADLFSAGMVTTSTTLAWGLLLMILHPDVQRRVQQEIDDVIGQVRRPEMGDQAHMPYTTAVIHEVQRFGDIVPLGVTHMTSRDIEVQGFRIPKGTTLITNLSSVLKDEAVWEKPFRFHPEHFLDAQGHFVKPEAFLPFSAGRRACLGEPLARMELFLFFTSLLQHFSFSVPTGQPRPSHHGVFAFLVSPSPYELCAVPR
Chain of Macrophage colony-stimulating factor 1 receptor (P07333 whole entry): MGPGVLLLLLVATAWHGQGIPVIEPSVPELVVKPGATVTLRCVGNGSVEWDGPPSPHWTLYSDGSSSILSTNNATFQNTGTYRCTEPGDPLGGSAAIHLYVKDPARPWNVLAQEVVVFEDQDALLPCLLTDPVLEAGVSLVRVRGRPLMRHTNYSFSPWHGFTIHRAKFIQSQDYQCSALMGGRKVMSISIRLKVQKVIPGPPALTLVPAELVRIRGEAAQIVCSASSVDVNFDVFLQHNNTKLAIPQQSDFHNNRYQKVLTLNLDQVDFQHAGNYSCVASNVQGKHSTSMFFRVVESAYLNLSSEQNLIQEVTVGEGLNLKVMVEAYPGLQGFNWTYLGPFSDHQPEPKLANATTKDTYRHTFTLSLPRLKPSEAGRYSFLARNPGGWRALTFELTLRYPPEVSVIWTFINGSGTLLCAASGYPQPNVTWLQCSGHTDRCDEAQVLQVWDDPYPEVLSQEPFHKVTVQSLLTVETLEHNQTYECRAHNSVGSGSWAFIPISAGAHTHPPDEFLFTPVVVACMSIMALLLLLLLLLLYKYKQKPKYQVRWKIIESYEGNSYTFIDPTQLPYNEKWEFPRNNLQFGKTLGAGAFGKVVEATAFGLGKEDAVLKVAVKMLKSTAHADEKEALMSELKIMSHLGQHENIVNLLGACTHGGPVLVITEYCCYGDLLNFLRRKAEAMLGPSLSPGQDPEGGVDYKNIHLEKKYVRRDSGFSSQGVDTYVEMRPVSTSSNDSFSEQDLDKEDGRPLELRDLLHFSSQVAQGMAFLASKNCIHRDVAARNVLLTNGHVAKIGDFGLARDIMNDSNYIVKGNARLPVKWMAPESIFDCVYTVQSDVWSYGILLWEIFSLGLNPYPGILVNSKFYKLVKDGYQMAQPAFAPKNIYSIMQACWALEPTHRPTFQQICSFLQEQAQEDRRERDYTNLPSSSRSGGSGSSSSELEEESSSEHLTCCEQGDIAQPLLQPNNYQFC
Chain of Cytochrome P450 2C9 (P11712 whole entry): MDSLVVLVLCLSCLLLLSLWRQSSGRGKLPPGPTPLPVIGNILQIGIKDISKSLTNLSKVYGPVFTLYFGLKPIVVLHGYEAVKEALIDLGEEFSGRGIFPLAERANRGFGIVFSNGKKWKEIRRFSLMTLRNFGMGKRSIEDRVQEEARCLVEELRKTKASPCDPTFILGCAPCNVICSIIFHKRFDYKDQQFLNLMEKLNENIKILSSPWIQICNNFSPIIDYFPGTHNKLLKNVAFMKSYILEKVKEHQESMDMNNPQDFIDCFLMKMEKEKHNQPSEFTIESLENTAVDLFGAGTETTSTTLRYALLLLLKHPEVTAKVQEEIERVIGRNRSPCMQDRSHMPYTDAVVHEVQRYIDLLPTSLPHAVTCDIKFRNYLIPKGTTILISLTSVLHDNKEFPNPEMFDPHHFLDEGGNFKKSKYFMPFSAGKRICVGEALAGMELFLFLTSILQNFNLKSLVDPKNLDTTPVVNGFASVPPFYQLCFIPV
T1 sequence (P05622 whole entry): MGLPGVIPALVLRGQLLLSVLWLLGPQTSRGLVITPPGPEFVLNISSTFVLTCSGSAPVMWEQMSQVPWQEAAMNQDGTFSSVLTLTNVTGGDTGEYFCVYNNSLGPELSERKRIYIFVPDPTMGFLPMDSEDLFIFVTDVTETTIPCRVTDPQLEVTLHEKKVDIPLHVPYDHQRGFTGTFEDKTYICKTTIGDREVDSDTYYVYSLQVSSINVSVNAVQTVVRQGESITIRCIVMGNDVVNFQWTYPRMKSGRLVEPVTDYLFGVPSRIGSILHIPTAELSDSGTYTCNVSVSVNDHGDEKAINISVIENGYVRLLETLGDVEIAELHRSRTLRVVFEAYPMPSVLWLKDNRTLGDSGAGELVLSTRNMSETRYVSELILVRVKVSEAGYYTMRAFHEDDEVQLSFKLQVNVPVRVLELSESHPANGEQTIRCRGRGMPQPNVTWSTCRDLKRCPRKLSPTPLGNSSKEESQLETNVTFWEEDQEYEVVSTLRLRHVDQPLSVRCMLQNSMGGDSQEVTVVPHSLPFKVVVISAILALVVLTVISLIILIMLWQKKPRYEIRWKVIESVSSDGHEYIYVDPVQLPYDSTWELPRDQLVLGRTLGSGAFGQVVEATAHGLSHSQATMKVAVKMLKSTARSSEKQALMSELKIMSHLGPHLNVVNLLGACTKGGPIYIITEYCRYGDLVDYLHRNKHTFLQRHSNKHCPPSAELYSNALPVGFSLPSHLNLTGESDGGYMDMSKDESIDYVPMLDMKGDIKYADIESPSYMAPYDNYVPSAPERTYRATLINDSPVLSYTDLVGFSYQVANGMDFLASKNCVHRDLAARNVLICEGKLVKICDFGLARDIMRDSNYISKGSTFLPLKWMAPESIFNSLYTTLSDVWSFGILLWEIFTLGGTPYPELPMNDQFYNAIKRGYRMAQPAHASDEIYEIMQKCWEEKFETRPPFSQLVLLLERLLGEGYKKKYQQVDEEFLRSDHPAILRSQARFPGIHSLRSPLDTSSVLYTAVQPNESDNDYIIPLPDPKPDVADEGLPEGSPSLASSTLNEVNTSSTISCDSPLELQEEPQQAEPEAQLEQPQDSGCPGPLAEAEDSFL
Chain of Mast/stem cell growth factor receptor Kit (P10721 whole entry): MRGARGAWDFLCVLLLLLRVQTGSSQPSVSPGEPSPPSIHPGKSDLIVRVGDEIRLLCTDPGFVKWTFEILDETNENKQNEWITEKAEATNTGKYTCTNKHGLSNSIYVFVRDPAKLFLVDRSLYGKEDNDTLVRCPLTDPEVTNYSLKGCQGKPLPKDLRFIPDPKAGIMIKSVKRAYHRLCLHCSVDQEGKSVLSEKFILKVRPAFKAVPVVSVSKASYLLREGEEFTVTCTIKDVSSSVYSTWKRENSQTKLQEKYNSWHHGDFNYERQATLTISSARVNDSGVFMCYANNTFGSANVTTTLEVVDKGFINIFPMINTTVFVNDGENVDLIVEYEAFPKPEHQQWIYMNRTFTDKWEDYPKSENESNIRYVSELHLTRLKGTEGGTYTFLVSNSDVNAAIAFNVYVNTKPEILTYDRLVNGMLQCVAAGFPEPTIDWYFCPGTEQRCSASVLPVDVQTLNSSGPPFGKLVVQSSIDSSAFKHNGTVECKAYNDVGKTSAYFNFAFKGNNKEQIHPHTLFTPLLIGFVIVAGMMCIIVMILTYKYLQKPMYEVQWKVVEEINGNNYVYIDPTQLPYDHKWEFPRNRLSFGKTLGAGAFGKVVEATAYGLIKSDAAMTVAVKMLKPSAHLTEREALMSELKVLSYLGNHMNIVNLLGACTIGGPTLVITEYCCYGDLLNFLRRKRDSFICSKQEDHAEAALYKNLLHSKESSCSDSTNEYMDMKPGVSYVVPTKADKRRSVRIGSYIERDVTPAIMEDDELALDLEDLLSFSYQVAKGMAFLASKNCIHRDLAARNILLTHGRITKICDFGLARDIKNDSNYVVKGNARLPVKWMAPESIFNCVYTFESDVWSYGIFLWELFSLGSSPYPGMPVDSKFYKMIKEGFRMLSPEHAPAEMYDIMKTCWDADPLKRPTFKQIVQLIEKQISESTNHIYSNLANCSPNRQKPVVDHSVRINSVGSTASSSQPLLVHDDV

SMILES: COCCOc1ccn2c(-c3ccc4cccc(O[C@H]5CCCNC5)c4n3)cnc2c1
IC50 [1]: 5 nM

SMILES: COCCOc1ccn2c(-c3ccc4cccc(O[C@@H]5CCNC[C@@H]5F)c4n3)cnc2c1 (relative stereo)
Cmax [2]: 70 ng/mL
recovery (MDR1): 30%
pKa [3]: 7.5
IC50 (Cytochrome P450 2C19): > 10000 nM
AUC [4]: 730 ng·h/mL
IC50 (Cytochrome P450 3A4): > 10000 nM
IC50 [5]: > 1000 nM
IC50 (Cytochrome P450 2C9): > 10000 nM
IC50 (Cytochrome P450 2D6): 5880 nM
IC50 (Cytochrome P450 1A2): > 10000 nM
clearance [6]: 28 mL/min/kg
bioavailability [7]: 13%
IC50 [8]: 25 nM
IC50 [1]: 4 nM
Papp A→B [9]: 2.7 ×10⁻⁶ cm/s

SMILES: COCCOc1ccn2c(-c3ccc4cccc(O[C@@H]5CCCNC5)c4n3)cnc2c1
IC50 [1]: 72 nM

SMILES: COCCOc1ccn2c(-c3ccc4cccc(OC5CCN(C)CC5)c4n3)cnc2c1
IC50 [1]: 9 nM

SMILES: COCCOc1ccn2c(-c3ccc4cccc(O[C@@H]5CCNC[C@H]5F)c4n3)cnc2c1 [listing 1 of 2 here]
Cmax [2]: 160 ng/mL
bioavailability [11]: 6%
IC50 (Cytochrome P450 2C19): > 10000 nM
AUC [4]: 2300 ng·h/mL
IC50 [5]: 430 nM
EC50 (Mus musculus [12]): 0.065 µg/mL (≈ 0.149 µM)
IC50 (Cytochrome P450 2C9): > 10000 nM
IC50 (Cytochrome P450 2D6): > 10000 nM
IC50 (Cytochrome P450 1A2): > 10000 nM
clearance [6]: 20 mL/min/kg
Cmax [13]: 190 ng/mL
bioavailability [7]: 28%
IC50 [8]: 70 nM
IC50 [1]: 3 nM
IC50 [14]: 3900 nM
Activity (Rattus norvegicus [15]): Non-toxic
AUC [16]: 950 ng·h/mL
Papp (LLC-PK1): 3.7 ×10⁻⁶ cm/s

SMILES: COCCOc1ccn2c(-c3ccc4cccc(OCc5cnc[nH]5)c4n3)cnc2c1
IC50 [10]: > 1000 nM
IC50 [1]: > 1000 nM

SMILES: COCCOc1ccn2c(-c3ccc4cccc(O[C@@H]5CCNC[C@H]5F)c4n3)cnc2c1 (relative stereo)
Cmax (Rattus norvegicus [17]): 120 ng/mL
recovery (MDR1): 30%
pKa [3]: 7.4
IC50 (Cytochrome P450 2C19): > 10000 nM
AUC (Rattus norvegicus [18]): 2100 ng·h/mL
IC50 (Cytochrome P450 3A4): > 10000 nM
IC50 [5]: 682 nM
IC50 (Cytochrome P450 2C9): > 10000 nM
IC50 (Cytochrome P450 2D6): > 10000 nM
IC50 (Cytochrome P450 1A2): > 10000 nM
F (Rattus norvegicus [19]): 30%
IC50 [8]: 63 nM
IC50 [1]: 4 nM
Papp A→B [9]: 4.4 ×10⁻⁶ cm/s

SMILES: COCCOc1ccn2c(-c3ccc4cccc(OCCN)c4n3)cnc2c1
IC50 [10]: > 1000 nM
IC50 [1]: 176 nM

SMILES: COCCOc1ccn2c(-c3ccc4cccc(OC5CCNCC5)c4n3)cnc2c1
Cmax [2]: 70 ng/mL
solubility [20]: > 1000 µg/mL
recovery (MDR1): 50%
pKa [3]: 9.3
IC50 (Cytochrome P450 2C19): > 10000 nM
AUC [4]: 800 ng·h/mL
IC50 (Cytochrome P450 3A4): > 10000 nM
IC50 [5]: 961 nM
IC50 (Cytochrome P450 2C9): > 10000 nM
IC50 (Cytochrome P450 2D6): > 10000 nM
IC50 (Cytochrome P450 1A2): > 10000 nM
clearance [6]: 33 mL/min/kg
IC50 [10]: > 1000 nM
bioavailability [7]: 16%
IC50 [8]: 25 nM
IC50 [1]: 3 nM
Papp A→B [9]: 16.3 ×10⁻⁶ cm/s

SMILES: COCCOc1ccn2c(-c3ccc4cccc(O[C@@H]5CCNC[C@H]5F)c4n3)cnc2c1 [listing 2 of 2 here]
inhibition (Mus musculus [12]): Dose-dependent effect
inhibition (Mus musculus [21]): inactive

SMILES: COCCOc1ccn2c(-c3ccc4cccc(OCC5CCNCC5)c4n3)cnc2c1
IC50 [10]: > 1000 nM
IC50 [1]: 34 nM

SMILES: COCCOc1ccn2c(-c3ccc4cccc(OCC5CNCCO5)c4n3)cnc2c1 (racemic)
IC50 [10]: > 1000 nM
IC50 [1]: 160 nM

SMILES: COCCOc1ccn2c(-c3ccc4cccc(O[C@@H]5CNC[C@H]5OC)c4n3)cnc2c1 (racemic)
IC50 [10]: > 1000 nM
IC50 [8]: > 1000 nM
IC50 [1]: 10 nM

SMILES: COCCOc1ccn2c(-c3ccc4cccc(O[C@@H]5CCNC[C@@H]5O)c4n3)cnc2c1 (racemic)
IC50 [1]: 2 nM

The remaining lines, values ahead:

IC50 [1]: 3 nM
SMILES: COCCOc1ccn2c(-c3ccc4cccc(O[C@@H]5CCNC[C@H]5O)c4n3)cnc2c1 (racemic)

IC50 [10]: > 1000 nM
IC50 [1]: 958 nM
SMILES: COCCOc1ccn2c(-c3ccc4cccc(O[C@H]5CN[C@H](C(=O)OC)C5)c4n3)cnc2c1

IC50 [10]: > 1000 nM
IC50 [1]: > 1000 nM
SMILES: COCCOc1ccn2c(-c3ccc4cccc(O[C@@H]5CN[C@H](C(=O)OC)C5)c4n3)cnc2c1

IC50 [5]: > 1000 nM
IC50 [1]: 18 nM
SMILES: COCCOc1ccn2c(-c3ccc4cccc(OCC(C)(C)CN)c4n3)cnc2c1

IC50 [10]: > 1000 nM
IC50 [1]: 28 nM
SMILES: COCCOc1ccn2c(-c3ccc4cccc(O[C@H]5CC[C@H](N)CC5)c4n3)cnc2c1

IC50 [1]: 1 nM
SMILES: COCCOc1ccn2c(-c3ccc4cccc(OCC5(F)CCNCC5)c4n3)cnc2c1

IC50 (Cytochrome P450 2C19): > 10000 nM
IC50 (Cytochrome P450 3A4): > 10000 nM
IC50 [5]: 491 nM
IC50 (Cytochrome P450 2C9): > 10000 nM
IC50 (Cytochrome P450 2D6): > 10000 nM
IC50 (Cytochrome P450 1A2): > 10000 nM
IC50 [8]: 55 nM
IC50 [1]: 3 nM
SMILES: COCCOc1ccn2c(-c3ccc4cccc(O[C@H]5CCNC[C@@H]5F)c4n3)cnc2c1

IC50 [8]: 29 nM
IC50 [1]: 1 nM
SMILES: COCCOc1ccn2c(-c3ccc4cccc(OCC5CCNC5)c4n3)cnc2c1 (racemic)
